≈ marks a conversion by molar mass, not a printed value. Read-outs that look alike come from different tables or passages of the source.
Columns and labels:
physchem [1] = details: HPLC, Ascentis Express RP Amide column
[2] = test system: Leishmania infantum MHOM/MA(BE)/67/ITMAP263 intracellular amastigotes; assay: microbe, parasite or virus in culture; details: Macrophage, in Mus musculus
[3] = versus the preceding analogue
[4] = test system: primary peritoneal mouse macrophages (PMM); assay: cells; details: Macrophage
in vitro [5] = details: human, microsomes; for microsomal CLint at 0.5 μM: human liver microsomes
[6] = 6 h incubation in mouse plasma
in vitro [7] = details: mouse, microsomes; for microsomal CLint at 0.5 μM: mouse liver microsomes
in vitro [8] = details: plasma
physchem [9] = assay: physchem
THP-1 cells = details: 120 hours, Alamar Blue
[10] = test system: primary peritoneal mouse macrophages (PMM); details: cytotoxicity to PMM; geometric mean of a minimum of two experiments ± standard error
[11] = test system: Leishmania infantum (MHOM/MA/67/ITMAP-263) intracellular amastigotes in THP-1; details: THP-1 host cells, 120 hours
[12] = test system: Leishmania infantum MHOM/MA(BE)/67/ITMAP263 intracellular amastigotes; details: intracellular amastigotes in PMM; geometric mean of a minimum of two experiments ± standard error
[13] = test system: L. infantum MHOM/MA/67/ITMAP263 axenic Promastigotes; assay: microbe, parasite or virus in culture; details: Leishmania infantum, read-out: L. infantum MHOM/MA/67/ITMAP263 axenic Promastigotes IC50
[14] = test system: Trypanosoma cruzi, Tulahuen CL2, beta-galactosidase strain; assay: microbe, parasite or virus in culture
in vitro [15] = details: human, HepG2 cells
in vitro [16] = details: human
in vitro [17] = details: human, HFF-1 cells
in vitro [18] = details: PAMPA
[19] = test system: L. donovani MHOM/SD/62/1SCL2D intracellular amastigotes; assay: microbe, parasite or virus in culture; details: Leishmania donovani, read-out: L. donovani MHOM/SD/62/1SCL2D intracellular amastigotes IC50
in vitro [20] = details: human, HepG2 cells; remark: listed apart in the source
[21] = test system: axenic L. don. amastigotes (MHOM/SD/62/1S-CL2, LdBOB); assay: microbe, parasite or virus in culture; details: Leishmania donovani, read-out: L. donovani MHOM/SD/62/1SCL2D axenic-cidal amastigotes IC50
in vitro [22] = details: human, THP-1 cells differentiated with PMA
in vitro [23] = details: human, HepG2 cells; remark: listed apart in the source
[24] = test system: Leishmania infantum (MHOM/MA/67/ITMAP-263) intracellular amastigotes in THP-1; assay: microbe, parasite or virus in culture; details: THP-1, read-out: L. infantum MHOM/MA/67/ITMAP263 intracellular amastigotes THP-1 cells IC50 (uM)
in vitro [25] = details: PAMPA; remark: listed apart in the source
in vitro [26] = details: human, HFF-1 cells; remark: listed apart in the source
Vero = assay: cells; details: Chlorocebus sabaeus, read-out: Vero IC50
[27] = read-out: L. Inf. pIC50, from L. infantum intracellular amastigote IC50 (converted)
[28] = read-out: L. infantum MHOM/MA(BE)/67/ITMAP263 intracellular amastigotes IC50, intracellular amastigotes
[29] = MRC5, read-out: T. cruzi Tulahuen C4 (LacZ) IC50
[30] = read-out: L. Inf. pIC50 (converted)
[31] = read-out: L. infantum MHOM/MA(BE)/67/ITMAP263 intracellular amastigotes IC50
[32] = PBS, pH 7.4, aqueous buffer, kinetic from dmso stock

## COc1ccc(C(=O)N2CCOCC2)cc1S(=O)(=O)N(Cc1ccc(F)cc1)Cc1ccc(C(F)(F)F)nc1 [Compound 46]
Physchem [1]; pH 7.4, elog D, HPLC measured log D, pH 7.4
  chromatographic logD: 3.7
[2]; read-out: L. inf. pIC50, intracellular amastigotes in PMM (converted), geometric mean of a minimum of two experiments ± standard error
  IC50: 1.74 µM
[3]
  improvement in the in vitro mouse clearance: 4 fold
[4]; read-out: PMM pIC50 (converted)
  IC50: > 64.6 µM
In vitro [5]; pH 7.4, Microsome Clint,u Human, Table 2, intrinsic in vitro clearance, liver microsomes
  microsomal CLint at 0.5 h, 0.5 µM: 265 µL/min/mg
[6]
  Mouse plasma stability (6 h): 22 % remaining
In vitro [7]; pH 7.4, Microsome Clint,u Mouse, Table 2, intrinsic in vitro clearance, liver microsomes
  microsomal CLint at 0.5 h, 0.5 µM: 534 µL/min/mg
In vitro [8]; Plasma protein binding (PPB)
  fraction unbound: 0.041
Physchem [9]; aqueous medium, pH 2.0, pH 2
  solubility kinetic: 3.8 µg/mL (≈ 6.7 µM)
Physchem [9]; aqueous medium, pH 7.4, pH 7.4
  solubility kinetic: 3.2 µg/mL (≈ 5.64 µM)

## COc1ccc(S(C)(=O)=O)cc1S(=O)(=O)N(Cc1ccccc1)CC(C)(C)C [SI52]
THP-1 cells
  pIC50 Cytotoxicity THP-1: < 4.19
[10]
  PMM pIC50: < 4.19
[11]
  Intracellular activity pIC50 L. inf. in THP-1: 4.32±0.01
[12]
  L. inf. pIC50: 5.56±0.28

## COc1ccc(OC)c(S(=O)(=O)N(Cc2ccc(F)cc2)c2ccc(F)cn2)c1 [DNDI0003370085]
Physchem [1]; pH 7.4, eLogD, experimental
  chromatographic logD: 3.5
[13]
  IC50: 33 µM
[2]; [27]
  IC50: 41.7 µM
[2]; [28]
  IC50: 41.9 µM
[4]; read-out: PMM IC50
  IC50: > 64 µM
[14]; [29]
  IC50: 5.17 µM
In vitro [5]; pH 7.4, HLM CLint
  microsomal CLint at 0.5 μM: 230 µL/min/mg
In vitro [15]
  CC50: 16.4 µM
In vitro [16]
  CC50 at 3 days: > 64 µM
In vitro [7]; pH 7.4, MLM CLint
  microsomal CLint at 0.5 μM: 1990 µL/min/mg
In vitro [17]
  CC50: 15 µM
In vitro [18]
  Papp: 7.1 ×10⁻⁶ cm/s

## COc1cc(S(=O)(=O)N(Cc2ccccc2)Cc2ccccc2)c(OC)cc1C [DNDI0002644002]
[19]
  IC50: 12 µM
other
  KS PBS - pH 2: 0.41 ug/mL
In vitro [20]
  CC50: 39 µM
[2]; [30]
  IC50: 0.537 µM
[2]; [31]
  IC50: 0.54 µM
[4]; read-out: PMM IC50
  IC50: > 64 µM
[14]; [29]
  IC50: > 64 µM
In vitro [5]; pH 7.4, HLM CLint
  microsomal CLint at 0.5 μM: 920 µL/min/mg
[21]
  IC50: 1500 nM
In vitro [16]
  CC50 at 3 days: > 64 µM
In vitro [22]
  CC50 at 120 h: > 50 µM
In vitro [7]; pH 7.4, MLM CLint
  microsomal CLint at 0.5 μM: 1080 µL/min/mg
Physchem [9]; [32]
  solubility kinetic: 0.41 µg/mL (≈ 0.996 µM)

## CCCCCOc1cc(C)c(Cl)cc1S(=O)(=O)NCc1cccs1 [DNDI0002572712]
[19]
  IC50: 12 µM
other
  KS PBS - pH 2: 0.39 ug/mL
In vitro [20]
  CC50: 40 µM
[2]; [30]
  IC50: 0.851 µM
[2]; [31]
  IC50: 0.85 µM
[4]; read-out: PMM IC50
  IC50: 40.3 µM
[14]; [29]
  IC50: 12.2 µM
In vitro [5]; pH 7.4, HLM CLint
  microsomal CLint at 0.5 μM: 693 µL/min/mg
[21]
  IC50: 4400 nM
In vitro [16]
  CC50 at 3 days: 44.1 µM
In vitro [22]
  CC50 at 120 h: > 50 µM
In vitro [7]; pH 7.4, MLM CLint
  microsomal CLint at 0.5 μM: 693 µL/min/mg
Physchem [9]; [32]
  solubility kinetic: 0.39 µg/mL (≈ 1.01 µM)

## COc1ccc(CN2CCCC2)cc1S(=O)(=O)N(Cc1ccc(F)cc1)Cc1ccc(F)cc1 [DNDI0003370114]
Physchem [1]; pH 7.4, eLogD, experimental
  chromatographic logD: 4.4
[13]
  IC50: 0.72 µM
[2]; [27]
  IC50: 2.95 µM
[2]; [28]
  IC50: 2.92 µM
[4]; read-out: PMM IC50
  IC50: 8 µM
[14]; [29]
  IC50: 3.27 µM
In vitro [5]; pH 7.4, HLM CLint
  microsomal CLint at 0.5 μM: 62 µL/min/mg
In vitro [15]
  CC50: 3.25 µM
In vitro [16]
  CC50 at 3 days: 6.87 µM
In vitro [7]; pH 7.4, MLM CLint
  microsomal CLint at 0.5 μM: 144 µL/min/mg
In vitro [17]
  CC50: 13.8 µM
In vitro [18]
  Papp: 0.64 ×10⁻⁶ cm/s

## COc1ccc(C(=O)N2CCOCC2)cc1S(=O)(=O)N(Cc1ccccc1)Cc1cnc(C(F)(F)F)nc1 [DNDI0003425509]
Physchem [1]; pH 7.4, eLogD, experimental
  chromatographic logD: 3.1
In vitro [23]
  CC50: > 64 µM
[24]
  IC50: > 64 µM
other
  KS PBS - pH 2 (ug/mL): 11.3 ug/mL
[2]; [27]
  IC50: 4.37 µM
[2]; read-out: L. infantum MHOM/MA(BE)/67/ITMAP263 intracellular amastigotes IC50 (uM), intracellular amastigotes
  IC50: 4.35 µM
[4]; read-out: PMM IC50 (uM)
  IC50: > 64 µM
[14]; MRC5, read-out: T. cruzi Tulahuen C4 (LacZ) IC50 (uM)
  IC50: 7.07 µM
In vitro [5]; pH 7.4, HLM CLint (uL/min/mg)
  microsomal CLint at 0.5 μM: 76 µL/min/mg
In vitro [16]
  CC50 at 3 days: > 64 µM
In vitro [25]
  Papp: 15.2 ×10⁻⁶ cm/s
In vitro [22]
  CC50 at 120 h: > 64 µM
In vitro [7]; pH 7.4, MLM CLint (uL/min/mg)
  microsomal CLint at 0.5 μM: 78 µL/min/mg
In vitro [8]; PPB (%)
  fraction unbound: 0.117
Physchem [9]; [32]
  solubility kinetic: 6.22 µg/mL (≈ 11.3 µM)
In vitro [26]
  CC50: > 64 µM

## COc1ccc(C2c3cccn3CCN2S(=O)(=O)c2ccc3ccccc3c2)cc1 (stereo not drawn) [DNDI0003355838]
[19]
  IC50: > 50 µM
In vitro [20]
  CC50: > 50 µM
In vitro [22]
  CC50 at 120 h: > 50 µM
Vero
  IC50: > 50 µM

Source: article PMC8126888 (RSC Medicinal Chemistry, 2020)
